Results as given in ChEMBL document CHEMBL4609979, “Design of enkephalin modifications protected from brain extracellular peptidases providing long-term analgesia” (Bioorg Med Chem, 2020).
Activity calls are given as the source filed them. The rule behind the calls is not given here. Where a SMILES comes first, the peptide text is derived from it. [ ]: non-standard residue; d: D form. βAla = NCCC(=O)O

Key:
Rattus norvegicus = experiment: Analgesic activity in Wistar rat assessed as increase in tail flick latency at 0.4 uM/kg administered intranasally and measured upto 120 mins by tail-flick test; type: functional, organism-based
[1] = Stability in bovine brain synaptosomes assessed as compound remaining at 0.35 mM incubated for 30 mins by thin layer chromatography analysis; type: ADME, subcellular, Bos taurus; conditions: cattle
[2] = Stability in bovine brain synaptosomes assessed as compound remaining at 0.35 mM incubated for 3 hrs by thin layer chromatography analysis; type: ADME, subcellular, Bos taurus; conditions: cattle; for remaining at 3 h, 350 µM: brain synaptosomes, read-out: Stability
[3] = Toxicity in Wistar rat assessed as effect on memory by measuring average distance that has been travelled to previously placed platform at 0.4 uM/kg administered intranasally by Morris water maze test; conditions: in vivo, inhaled_or_intranasal
[4] = Acute toxicity in Wistar rat assessed as sleep at 2 uM/kg administered intranasally and measured after 20 mins; conditions: in vivo, inhaled_or_intranasal
[5] = Acute toxicity in Wistar rat assessed as arterial pressure at 2 uM/kg administered intranasally and measured after 20 mins; conditions: in vivo, inhaled_or_intranasal
[6] = Acute toxicity in Wistar rat assessed as pathological abnormalities in tissues at 2 uM/kg administered intranasally and measured after 20 mins; conditions: in vivo, inhaled_or_intranasal
[7] = Acute toxicity in Wistar rat assessed as appetite at 2 uM/kg administered intranasally and measured after 20 mins; conditions: in vivo, inhaled_or_intranasal
[8] = Acute toxicity in Wistar rat assessed as pathological abnormalities in organs at 2 uM/kg administered intranasally and measured after 20 mins; conditions: in vivo, inhaled_or_intranasal
[9] = Acute toxicity in Wistar rat assessed as animal death at 2 uM/kg administered intranasally and measured after 20 mins; conditions: in vivo, inhaled_or_intranasal
[10] = Acute toxicity in Wistar rat assessed as irritability at 2 uM/kg administered intranasally and measured after 20 mins; conditions: in vivo, inhaled_or_intranasal
[11] = Acute toxicity in Wistar rat assessed as animal activity at 2 uM/kg administered intranasally and measured after 20 mins; conditions: in vivo, inhaled_or_intranasal
[12] = Acute toxicity in Wistar rat assessed as heart rate at 2 uM/kg administered intranasally and measured after 20 mins; conditions: in vivo, inhaled_or_intranasal
[13] = Acute toxicity in Wistar rat assessed as nausea at 2 uM/kg administered intranasally and measured after 20 mins; conditions: in vivo, inhaled_or_intranasal

## CSCC[C@H](NC(=O)[C@H](Cc1ccccc1)NC(=O)CNC(=O)CNC(=O)[C@@H](N)Cc1ccc(O)cc1)C(=O)O
Rattus norvegicus
  Activity: Active
[1]; 0.5 h, 350 µM
  Stability: Unstable

## C[C@H](N)C(=O)N[C@@H](CCCCN)C(=O)N[C@@H](Cc1ccccc1)C(=O)O (H-Ala-Lys-Phe-OH)
[1]; brain synaptosomes, read-out: Stability
  remaining at 0.5 h, 350 µM: 0%

## C[C@H](NC(=O)CCN)C(=O)N[C@@H](CCCCN)C(=O)N[C@@H](Cc1ccccc1)C(=O)NCCC(=O)O (H-[βAla]AKF[βAla]-OH)
[2]; 3 h, 350 µM
  Stability: Stable

## NCCC(=O)N[C@@H](Cc1ccc(O)cc1)C(=O)NCC(=O)N[C@@H](Cc1ccccc1)C(N)=O (H-[βAla]YGF-NH2)
[2]
  remaining at 3 h, 350 µM: 75%
Rattus norvegicus
  Activity: inactive

## NCCC(=O)N[C@@H](Cc1ccc(O)cc1)C(=O)NCC(=O)NCC(=O)N[C@@H](Cc1ccccc1)C(N)=O (H-[βAla]YGGF-NH2)
[3]
  Activity: Non-Toxic
[4]
  Activity: Non-Toxic
[5]
  Activity: Non-Toxic
[6]
  Activity: Non-Toxic
[7]
  Activity: Non-Toxic
[8]
  Activity: Non-Toxic
[9]
  Activity: Non-Toxic
[10]
  Activity: Non-Toxic
[11]
  Activity: Non-Toxic
[2]
  remaining at 3 h, 350 µM: 75%
[12]
  Activity: Non-Toxic
[13]
  Activity: Non-Toxic
Rattus norvegicus
  Activity: Active

## CSCC[C@H](NC(=O)[C@H](Cc1ccccc1)NC(=O)CNC(=O)CNC(=O)[C@H](Cc1ccc(O)cc1)NC(=O)CCN)C(=O)NCCC(=O)O (H-[βAla]YGGFM[βAla]-OH)
[2]
  remaining at 3 h, 350 µM: 55%
Rattus norvegicus
  Activity: Active
